Measurements taken from ChEMBL document CHEMBL1201862, “PubChem BioAssay data set” (2004).
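The compound was tested at five concentrations on cells cultured in 96-well plates, with a 48-hour exposure period. The concentration for 50% growth inhibition is given as GI50.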 Activity calls are given as the source filed them. Rule as the data show it: active = GI50 up to about 1.1 µM and inactive = higher.

Tests used:
Assay in all cases: NCI-60 cell line screen, 48 h
UO-31 = system: UO-31
CCRF-CEM = system: CCRF-CEM
Malme-3M = system: Malme-3M
SF-539 = system: SF-539
MCF7 = system: MCF7
SN12C = system: SN12C
SK-MEL-2 = system: SK-MEL-2
K562 = system: K562
SW-620 = system: SW-620
HT-29 = system: HT-29
786-0 = system: 786-0
HCT-116 = system: HCT-116
A549 = system: A549
SR = system: SR
M14 = system: M14
T47D = system: T47D
TK-10 = system: TK-10
HL-60 = system: HL-60
MDA-N = system: MDA-N
COLO 205 = system: COLO 205

Measured: GI50

CN1C(c2ccccc2)=CC(=O)C(O)=C(c2ccccc2)S1(=O)=O
inactive: UO-31 > 100 µM | CCRF-CEM > 100 µM | Malme-3M > 100 µM | SF-539 > 100 µM | MCF7 > 100 µM | SN12C > 100 µM | SK-MEL-2 > 100 µM | K562 > 100 µM | SW-620 > 100 µM | HT-29 > 100 µM | 786-0 > 100 µM | HCT-116 > 100 µM | A549 > 100 µM | SR > 100 µM | M14 > 100 µM | T47D > 100 µM | TK-10 > 100 µM | HL-60 > 100 µM | MDA-N > 100 µM | COLO 205 > 100 µM
